Reference: patent publication US9023789B2, “Amylin analogs and pharmaceutical compositions thereof” (Novo Nordisk A/S, priority 2012, dated 2015)
Numbered stars: 1 amine (or outer) side, 2 acyl side, 3 side chain; on linkers, the order of the positions; unused ones are H or OH. Bridge positions count the residues as written; N and C are the ends. Side chains are listed from the residue outwards. Peptide text beside a SMILES is read from it. * marks the point of attachment. C20 diacid = O=C(O)CCCCCCCCCCCCCCCCCCC(=O)*; γGlu = O=C(O)[C@H](CCC(=O)[*:2])N[*:1]; AEEA = NCCOCCOCC(=O)O

Assays:
[1] = target: T1, human amylin 3(a) receptor (human calcitonin receptor + RAMP-3) in BHK570 cells (Homo sapiens, UniProt O60896+P30988); assay: ASSAY (II)a functional assay, human amylin receptor (CRE luciferase); format: cell-based; conditions: for EC50: human amylin receptor functional potency, assay (II), read-out: hAmylin-R funct. EC50
T1 construct: expressed in transfected cells
T1 sequence (O60896 24-148): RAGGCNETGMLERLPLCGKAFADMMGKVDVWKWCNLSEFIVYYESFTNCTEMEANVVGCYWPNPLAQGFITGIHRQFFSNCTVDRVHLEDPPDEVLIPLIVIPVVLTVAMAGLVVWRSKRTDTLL
T1 sequence (P30988 25-474): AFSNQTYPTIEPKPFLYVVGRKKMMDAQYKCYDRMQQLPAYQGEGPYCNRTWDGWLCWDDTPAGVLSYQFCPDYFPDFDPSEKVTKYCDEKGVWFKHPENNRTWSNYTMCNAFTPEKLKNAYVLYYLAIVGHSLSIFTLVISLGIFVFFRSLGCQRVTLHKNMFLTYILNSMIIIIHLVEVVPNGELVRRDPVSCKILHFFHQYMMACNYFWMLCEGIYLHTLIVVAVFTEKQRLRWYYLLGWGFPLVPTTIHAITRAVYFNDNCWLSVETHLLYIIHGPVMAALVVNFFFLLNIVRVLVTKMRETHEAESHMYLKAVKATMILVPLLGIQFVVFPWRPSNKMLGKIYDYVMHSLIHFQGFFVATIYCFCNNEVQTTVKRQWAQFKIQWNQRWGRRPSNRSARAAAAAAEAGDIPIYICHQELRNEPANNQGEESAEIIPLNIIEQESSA
Procedure, shortened: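 BHK CRE-luc cells, calcitonin (a) receptor ± RAMP-3 (amylin 3(a)); overnight seeding, 37° C/5% CO2. 3 h ligand exposure, DMEM/10% FBS/10 mM Hepes pH 7.4. LucLite 30 min RT; luminescence (SPC).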

Sprague Dawley (SD) rats = assay: ASSAY (I) efficacy testing on appetite (food intake) using an ad libitum fed rat model; format: in vivo; conditions: rat, 30 nmol/kg
Procedure, shortened: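 Ad libitum fed SD rats (200–250 g) were housed singly on a reversed light/dark cycle and given one 0.01–3 mg/kg dose ip, po or sc just before lights-off, with 5–8 per dose group plus vehicle controls. Food intake was recorded hourly for 7 h, then at 24 h and sometimes 48 h; Grubbs outliers were excluded.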

[2] = ASSAY (III) ThT fibrillation assay for physical stability; format: physicochemical
Procedure, shortened: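 Formulations with 1 μM ThT, pH adjusted as required, incubated at 37 °C with 960 rpm orbital shaking; fluorescence (ex 444/em 485 nm) read every 20 min. Fibrillation reported as mean ThT fluorescence ± SD of 4–8 replicates at time points; polypeptide concentration measured by reverse-phase HPLC before and after, post-centrifugation.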

[3] = hCTR funct. EC50 divided by hAmylin-R funct. EC50
[4] = hCTR funct. EC50 over hAmylin-R funct. EC50
[5] = human functional selectivity: hCTR funct. EC50 / hAmylin-R funct. EC50

| SMILES | Ratio hCT/hAmylin funct. [1, 3] | Ratio hCT/hAmylin funct. [1, 4] | EC50 [1] [nM] | Ratio hCT/hAmylin funct. [1, 5] | ThT pH 4.0 lag time (h) [2] [h] | Food intake reduction 0-24 h 30 nmol/kg (%) (Sprague Dawley (SD) rats) | Food intake reduction 24-48 h 30 nmol/kg (%) (Sprague Dawley (SD) rats) |
| --- | --- | --- | --- | --- | --- | --- | --- |
| CC[C@H](C)[C@H](NC(=O)[C@H](C)NC(=O)CNC(=O)[C@H](Cc1ccccc1)NC(=O)[C@H](CC(N)=O)NC(=O)[C@@H]1CCCN1C(=O)[C@H](CO)NC(=O)[C@H](CO)NC(=O)[C@H](Cc1c[nH]cn1)NC(=O)[C@H](CCCNC(=N)N)NC(=O)[C@H](CC(C)C)NC(=O)[C@H](Cc1ccccc1)NC(=O)[C@H](CC(N)=O)NC(=O)[C@H](C)NC(=O)[C@H](CC(C)C)NC(=O)[C@H](CCCNC(=N)N)NC(=O)[C@H](CCC(N)=O)NC(=O)[C@@H](NC(=O)[C@H](C)NC(=O)[C@@H]1CSSC[C@H](NC(=O)[C@@H](N)CCCCNC(=O)CC[C@H](NC(=O)CC[C@H](NC(=O)CCCCCCCCCCCCCCCCCCC(=O)O)C(=O)O)C(=O)O)C(=O)N[C@@H](CC(N)=O)C(=O)N[C@@H]([C@@H](C)O)C(=O)N[C@@H](C)C(=O)N[C@@H]([C@@H](C)O)C(=O)N1)[C@@H](C)O)C(=O)N1CCC[C@H]1C(=O)N[C@@H](CO)C(=O)N[C@@H](CO)C(=O)N[C@H](C(=O)N[C@@H](CC(N)=O)C(=O)N[C@H](C(=O)NCC(=O)N[C@@H](Cc1c[nH]cn1)C(=O)N[C@@H](CC(N)=O)C(=O)N[C@H](C(=O)N[C@@H](Cc1ccc(O)cc1)C(N)=O)[C@@H](C)O)C(C)C)[C@@H](C)O [Example 86] (H-K([γGlu-γGlu-C20 diacid])CNTATCATQRLANFLRHSSPNFGAIPSSTNVGHNTY-NH2; disulfide 2-7) | 64.4 | 64.4 | 0.298 | 64.4 | 32 | 48 | 26 |
| CC[C@H](C)[C@H](NC(=O)[C@H](C)NC(=O)CNC(=O)[C@H](Cc1ccccc1)NC(=O)[C@H](CC(N)=O)NC(=O)[C@@H]1CCCN1C(=O)[C@H](CO)NC(=O)[C@H](CO)NC(=O)[C@H](Cc1c[nH]cn1)NC(=O)[C@H](CCCNC(=N)N)NC(=O)[C@H](CC(C)C)NC(=O)[C@H](Cc1ccccc1)NC(=O)[C@H](CC(N)=O)NC(=O)[C@H](C)NC(=O)[C@H](CC(C)C)NC(=O)[C@H](CCCNC(=N)N)NC(=O)[C@H](CCC(N)=O)NC(=O)[C@@H](NC(=O)[C@H](C)NC(=O)[C@@H]1CSSC[C@H](NC(=O)[C@@H](N)CCCCNC(=O)COCCOCCNC(=O)CC[C@H](NC(=O)CCCCCCCCCCCCCCCCCCC(=O)O)C(=O)O)C(=O)N[C@@H](CC(N)=O)C(=O)N[C@@H]([C@@H](C)O)C(=O)N[C@@H](C)C(=O)N[C@@H]([C@@H](C)O)C(=O)N1)[C@@H](C)O)C(=O)N1CCC[C@H]1C(=O)N[C@@H](CO)C(=O)N[C@@H](CO)C(=O)N[C@H](C(=O)N1CCC[C@H]1C(=O)N[C@H](C(=O)NCC(=O)N[C@@H](CO)C(=O)N[C@@H](Cc1c[nH]cn1)C(=O)N[C@H](C(=O)N[C@@H](Cc1ccc(O)cc1)C(N)=O)[C@@H](C)O)C(C)C)[C@@H](C)O [Example 57] (H-K([AEEA-γGlu-C20 diacid])CNTATCATQRLANFLRHSSPNFGAIPSSTPVGSHTY-NH2; disulfide 2-7; N-terminus assumed) | 35.0 | 35.0 | 0.089 | 35.0 | 45 | 62 | 16 |
| CC[C@H](C)[C@H](NC(=O)[C@H](C)NC(=O)CNC(=O)[C@H](Cc1ccccc1)NC(=O)[C@H](CC(N)=O)NC(=O)[C@@H]1CCCN1C(=O)[C@H](CO)NC(=O)[C@H](CO)NC(=O)[C@H](Cc1c[nH]cn1)NC(=O)[C@H](CCCNC(=N)N)NC(=O)[C@H](CC(C)C)NC(=O)[C@H](Cc1ccccc1)NC(=O)[C@H](Cc1c[nH]cn1)NC(=O)[C@H](C)NC(=O)[C@H](CC(C)C)NC(=O)[C@H](CCCNC(=N)N)NC(=O)[C@H](CCC(N)=O)NC(=O)[C@@H](NC(=O)[C@H](C)NC(=O)[C@@H]1CSSC[C@H](NC(=O)[C@@H](N)CCCCNC(=O)CC[C@H](NC(=O)CCCCCCCCCCCCCCCCCCC(=O)O)C(=O)O)C(=O)N[C@@H](CC(N)=O)C(=O)N[C@@H]([C@@H](C)O)C(=O)N[C@@H](C)C(=O)N[C@@H]([C@@H](C)O)C(=O)N1)[C@@H](C)O)C(=O)N1CCC[C@H]1C(=O)N[C@@H](CO)C(=O)N[C@@H](CO)C(=O)N[C@H](C(=O)N[C@@H](CC(N)=O)C(=O)N[C@H](C(=O)NCC(=O)N[C@@H](CCCNC(=N)N)C(=O)N[C@@H](CC(N)=O)C(=O)N[C@H](C(=O)N[C@@H](Cc1ccc(O)cc1)C(N)=O)[C@@H](C)O)C(C)C)[C@@H](C)O [Example 85] (H-K([γGlu-C20 diacid])CNTATCATQRLAHFLRHSSPNFGAIPSSTNVGRNTY-NH2; disulfide 2-7 (inferred); N-terminus assumed) | 26.6 | 26.6 | 0.146 | 26.6 | 45 | 30 | 6 |
| CC[C@H](C)[C@H](NC(=O)[C@H](C)NC(=O)CNC(=O)[C@H](Cc1ccccc1)NC(=O)[C@H](CC(N)=O)NC(=O)[C@@H]1CCCN1C(=O)[C@H](CO)NC(=O)[C@H](CO)NC(=O)[C@H](Cc1c[nH]cn1)NC(=O)[C@H](CCCNC(=N)N)NC(=O)[C@H](CC(C)C)NC(=O)[C@H](Cc1ccccc1)NC(=O)[C@H](CC(N)=O)NC(=O)[C@H](C)NC(=O)[C@H](CC(C)C)NC(=O)[C@H](CCCNC(=N)N)NC(=O)[C@H](CCC(N)=O)NC(=O)[C@@H](NC(=O)[C@H](C)NC(=O)[C@@H]1CSSC[C@H](NC(=O)[C@H](CCCCN)NC(=O)COCCOCCNC(=O)COCCOCCNC(=O)CC[C@H](NC(=O)CCCCCCCCCCCCCCCCCCC(=O)O)C(=O)O)C(=O)N[C@@H](CC(N)=O)C(=O)N[C@@H]([C@@H](C)O)C(=O)N[C@@H](C)C(=O)N[C@@H]([C@@H](C)O)C(=O)N1)[C@@H](C)O)C(=O)N1CCC[C@H]1C(=O)N[C@@H](CO)C(=O)N[C@@H](CO)C(=O)N[C@H](C(=O)N[C@@H](CC(N)=O)C(=O)N[C@H](C(=O)NCC(=O)N[C@@H](CO)C(=O)N[C@@H](CC(N)=O)C(=O)N[C@H](C(=O)N[C@@H](Cc1ccc(O)cc1)C(N)=O)[C@@H](C)O)C(C)C)[C@@H](C)O [Example 24] | 23.1 | 23.1 | – | 23.1 | 34 | 22 | 1 |

The next lines start with results.

| Ratio hCT/hAmylin funct. [1, 3] | Ratio hCT/hAmylin funct. [1, 4] | EC50 [1] [nM] | Ratio hCT/hAmylin funct. [1, 5] | ThT pH 4.0 lag time (h) [2] [h] | SMILES | Food intake reduction 0-24 h 30 nmol/kg (%) (Sprague Dawley (SD) rats) | Food intake reduction 24-48 h 30 nmol/kg (%) (Sprague Dawley (SD) rats) |
| --- | --- | --- | --- | --- | --- | --- | --- |
| 15.3 | 15.3 | – | 15.3 | 45 | CC[C@H](C)[C@H](NC(=O)[C@H](C)NC(=O)CNC(=O)[C@H](Cc1ccccc1)NC(=O)[C@H](CC(N)=O)NC(=O)[C@@H]1CCCN1C(=O)[C@H](CO)NC(=O)[C@H](CO)NC(=O)[C@H](Cc1c[nH]cn1)NC(=O)[C@H](CCCNC(=N)N)NC(=O)[C@H](CC(C)C)NC(=O)[C@H](Cc1ccccc1)NC(=O)[C@H](CC(N)=O)NC(=O)[C@H](C)NC(=O)[C@H](CC(C)C)NC(=O)[C@H](CCCNC(=N)N)NC(=O)[C@H](CCC(N)=O)NC(=O)[C@@H](NC(=O)[C@H](C)NC(=O)[C@@H]1CSSC[C@H](NC(=O)[C@@H](N)CCCCNC(=O)CC[C@H](NC(=O)CCCCCCCCCCCCCCCCCCC(=O)O)C(=O)O)C(=O)N[C@@H](CC(N)=O)C(=O)N[C@@H]([C@@H](C)O)C(=O)N[C@@H](C)C(=O)N[C@@H]([C@@H](C)O)C(=O)N1)[C@@H](C)O)C(=O)N1CCC[C@H]1C(=O)N[C@@H](CO)C(=O)N[C@@H](CO)C(=O)N[C@H](C(=O)N[C@@H](CC(N)=O)C(=O)N[C@H](C(=O)NCC(=O)N[C@@H](CO)C(=O)N[C@@H](Cc1c[nH]cn1)C(=O)N[C@H](C(=O)N[C@@H](Cc1ccc(O)cc1)C(N)=O)[C@@H](C)O)C(C)C)[C@@H](C)O [Example 60] | 69 | 21 |
| 6.6 | 6.6 | – | 6.6 | 45 | CC[C@H](C)[C@H](NC(=O)[C@H](C)NC(=O)CNC(=O)[C@H](Cc1ccccc1)NC(=O)[C@H](CC(N)=O)NC(=O)[C@@H]1CCCN1C(=O)[C@H](CO)NC(=O)[C@H](CO)NC(=O)[C@H](Cc1c[nH]cn1)NC(=O)[C@H](CCCNC(=N)N)NC(=O)[C@H](CC(C)C)NC(=O)[C@H](Cc1ccccc1)NC(=O)[C@H](CCC(=O)O)NC(=O)[C@H](C)NC(=O)[C@H](CC(C)C)NC(=O)[C@H](CCCNC(=N)N)NC(=O)[C@H](CCC(N)=O)NC(=O)[C@@H](NC(=O)[C@H](C)NC(=O)[C@@H]1CSSC[C@H](NC(=O)[C@H](CCCCN)NC(=O)CC[C@H](NC(=O)CCCCCCCCCCCCCCCCCCC(=O)O)C(=O)O)C(=O)N[C@@H](CC(N)=O)C(=O)N[C@@H]([C@@H](C)O)C(=O)N[C@@H](C)C(=O)N[C@@H]([C@@H](C)O)C(=O)N1)[C@@H](C)O)C(=O)N1CCC[C@H]1C(=O)N[C@@H](CO)C(=O)N[C@@H](CO)C(=O)N[C@H](C(=O)N[C@@H](CC(N)=O)C(=O)N[C@H](C(=O)NCC(=O)N1CCC[C@H]1C(=O)N[C@@H](CC(N)=O)C(=O)N[C@H](C(=O)N[C@@H](Cc1ccc(O)cc1)C(N)=O)[C@@H](C)O)C(C)C)[C@@H](C)O [Example 32] ({C20 diacid-γGlu}-KCNTATCATQRLAEFLRHSSPNFGAIPSSTNVGPNTY-NH2; disulfide 2-7) | 62 | 7 |
